Article PMC12655426 (Pharmaceutics, 2025)

How the values were obtained:
OAT3 = target: T1, OAT3 (Homo sapiens, UniProt Q8TCC7); experiment: OTA uptake in OAT3-overexpressing HEK293 cells (screen and kinetics)
T1 sequence (Q8TCC7 1-542): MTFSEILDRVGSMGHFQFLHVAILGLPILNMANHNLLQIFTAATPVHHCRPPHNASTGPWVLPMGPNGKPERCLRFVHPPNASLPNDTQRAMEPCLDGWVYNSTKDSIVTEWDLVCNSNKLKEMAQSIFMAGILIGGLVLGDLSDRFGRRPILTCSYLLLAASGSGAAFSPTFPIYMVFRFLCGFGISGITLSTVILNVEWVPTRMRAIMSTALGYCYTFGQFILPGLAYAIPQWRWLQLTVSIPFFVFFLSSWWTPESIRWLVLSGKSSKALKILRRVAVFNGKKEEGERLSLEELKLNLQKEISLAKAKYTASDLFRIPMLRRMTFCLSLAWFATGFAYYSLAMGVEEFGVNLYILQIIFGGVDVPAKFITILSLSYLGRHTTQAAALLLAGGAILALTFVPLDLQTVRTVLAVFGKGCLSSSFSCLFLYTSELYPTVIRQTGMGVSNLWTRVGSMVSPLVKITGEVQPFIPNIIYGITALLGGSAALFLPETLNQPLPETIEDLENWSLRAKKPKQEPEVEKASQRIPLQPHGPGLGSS
Experimental: The following experiments were conducted at the University of Washington. Mock HEK293 cells and transporter-overexpressing HEK293 cells (i.e., OAT1–4, OCT2, MATE1/2K, OCTN1, OATP1A2), mock CHO cells, and OCTN2-overexpressing CHO cells were plated in 96 well plates coated with 0.05 mg/mL of poly-D-lysine in 50 μL DPBS at a density of 800,000 cells/mL and grown until reaching over 90% of confluence. […] For uptake experiments in MATE1- and MATE2-K-expressing HEK293 cells, the pH of the incubation buffer was adjusted to 8.0 to facilitate substrate uptake. For uptake experiments in OATP1A2-expressing and OAT4-expressing HEK293 cells, the pH of the incubation buffer was adjusted to 6.5 to mimic pH of the urinary filtrate, as these are apical transporters. The incubation buffer was kept at pH 7.4 for all other transporters. […] Uptake was quenched by removing the substrates/inhibitors and washing the cells 3 times with 200 μL of ice-cold HBSS++. […] The precipitated protein was allowed to dry and subsequently solubilized overnight in 1M NaOH, neutralized with 1 M HCl the next day, and measured by BCA assay.
(§1) All cellular-based assays were conducted in technical triplicate across three independent experiments. […] This cutoff was defined a priori. […] Jnet was then treated as the initial uptake rate, and Km and Vmax values were obtained by fitting the Michaelis–Menten equation to the substrate-concentration data as described above. Intrinsic clearance (CLint) was then calculated by the formula, CLint=Vmax/Km using Vmax and Km values as calculated above. […] At steady-state, the mass balance for intracellular concentrations assuming symmetric passive permeabilities (Papical = Pbasal, taken as Papp from mock assays) and apical efflux gives: Ccell= Cbasal/1+ ke/Pa where Cbasal is the concentration in the basal chamber and ke is the first-order elimination with respect to BCRP. Because the asymmetric efflux ratio ERa is defined as: ERa=1+ ke/Pa

human BCRP = target: T2, human BCRP (Homo sapiens, UniProt Q9UNQ0); experiment: Bidirectional transport of OTA in BCRP-expressing MDCK-II cells; conditions: net B to A flux, 1.56 to 100 μM OTA
T2 sequence (Q9UNQ0 1-655): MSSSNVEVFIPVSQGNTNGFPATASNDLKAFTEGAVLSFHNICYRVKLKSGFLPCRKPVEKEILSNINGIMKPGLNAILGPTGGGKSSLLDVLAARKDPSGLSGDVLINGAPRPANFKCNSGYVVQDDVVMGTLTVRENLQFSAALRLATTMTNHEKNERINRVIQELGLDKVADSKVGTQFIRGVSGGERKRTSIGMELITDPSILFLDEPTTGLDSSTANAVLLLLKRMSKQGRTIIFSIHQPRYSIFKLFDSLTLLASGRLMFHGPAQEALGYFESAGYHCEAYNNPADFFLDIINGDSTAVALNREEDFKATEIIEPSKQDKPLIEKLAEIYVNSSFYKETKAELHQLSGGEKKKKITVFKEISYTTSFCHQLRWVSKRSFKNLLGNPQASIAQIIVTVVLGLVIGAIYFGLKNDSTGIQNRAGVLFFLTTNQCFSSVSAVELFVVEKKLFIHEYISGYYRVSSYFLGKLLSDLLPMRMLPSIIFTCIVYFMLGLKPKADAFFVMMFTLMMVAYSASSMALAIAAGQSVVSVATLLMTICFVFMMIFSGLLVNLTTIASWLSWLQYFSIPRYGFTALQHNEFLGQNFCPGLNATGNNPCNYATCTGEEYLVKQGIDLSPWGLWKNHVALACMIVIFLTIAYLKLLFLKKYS
Experimental: as §1

[1] = single fasted volunteer, microdose of radioactive OTA in ethanol, within 8 h, not absolute bioavailability; cited from earlier work
[2] = 0.5 mg/kg oral, rats, cited from earlier work

C[C@@H]1Cc2c(Cl)cc(C(=O)N[C@@H](Cc3ccccc3)C(=O)O)c(O)c2C(=O)O1 [OTA, Ochratoxin A]
Vmax (OAT3; HEK293, 5 min, 37 °C, pH 7.4, mock-corrected): 141.4 ± 30.3 pmol/mg/min
microsomal CLint (OAT3; human, other cell line, pH 7.4): 56.1 ± 6.3 µL/min/mg
Km at 5 min (OAT3; human, pH 7.4): 2.58 ± 0.83 µM
apparent CLint estimated by the slope of the linearly fitted line (human BCRP): 0.29 ± 0.03 µL/min/cm^2
percentage of administered radioactivity detected in plasma [1]: ~ 93%
OTA accumulated in kidney tissue ([2]; after 24 h): over 400 pmol/g
dose recovered in urine and feces ([2]; after 96 h): 15%
